Results from US6831190B1, “Guanidinomethyl cyclohexane carboxylic acid ester derivatives” (Teikoku Chemical Industries Co., Ltd., priority 1994, dated 2004).

Assays:
Format in all cases: cell-based
[1] = tested on: Escherichia coli NIH JC-2; assay: MIC, standard method of Japanese Chemotherapy Academy; details: for MIC: Objected Strain 3: Escherichia coli NIH JC-2
Protocol: (§1) 1. Minimum Inhibitory Concentration (MIC) was measured in accordance with the standard method of Japanese Chemotherapy Academy (Chemotherapy, 29: 76-79, 1981).

[2] = tested on: Helicobacter pylori ATCC 43504; assay: MIC, agar plating dilution (standard method of Japanese Chemotherapy Academy); details: Objected Strain 1: Helicobacter pylori ATCC 43504
Protocol: (§2) 1. Minimum Inhibitory Concentration (MIC) was measured in accordance with the standard method of Japanese Chemotherapy Academy (Chemotherapy, 29: 76-79, 1981). Sensitivity was measured with an agar plating dilution using Brain-Heart Infusion agar (Difco Co.) which was added 0.1% of cyclodextrin. […] of the solutions of the compounds which were obtained in examples of the present invention was prepared by dissolving in dimethylsulfoxide. […] Each of 1 ml of those prepared solutions was dispensed in share, after sterilization, 9 ml of sensitivity measuring medium which is kept at 50° C. was added to each, and they were sufficiently mixed. The mixture was used as a plate for measuring sensitivity. Brain Heart Infusion agar medium (Difco Co.), which was added 0.1% of cyclodextrin, was used as bacteria growing medium, and was cultured under microair at 37° C. for three days, and the number of bacteria thereof was adjusted to about 106/ml. This was used as a bacterial solution for inoculation. The medium was painted in each square about 2 cm with nichromic line loop. The medium was cultured under microair for three days at 37° C.

[3] = tested on: Helicobacter pylori ATCC 43629; assay: as above; details: Objected Strain 2: Helicobacter pylori ATCC 43629
Protocol: as §2

[4] = tested on: Helicobacter pylori No. 2; assay: MIC, agar plating dilution, clinical segregation strain; details: Strain 5: Helicobacter pylori No. 2
Protocol: (§3) Minimum Inhibitory Concentration (MIC) was measured in accordance with the standard method of Japanese Chemotherapy Academy (Chemotherapy, 29: 76-79, 1981). Sensitivity was measured with an agar plating dilution using Brain-Heart Infusion agar (Difco Co.) which was added 0.1% of cyclodextrin. […] of the solutions of the compounds which were obtained in examples of the present invention was prepared by dissolving in dimethylsulfoxide. […] Each of 1 ml of those prepared solutions was dispensed in share, after sterilization, 9 ml of sensitivity measuring medium which is kept at 50° C. was added to each, and they were sufficiently mixed. The mixture was used as a plate for measuring sensitivity. Brain Heart Infusion agar medium (Difco Co.), which was added 0.1% of cyclodextrin, was used as bacteria growing medium, and was cultured under microair at 37° C. for three days, and the number of bacteria thereof was adjusted to about 106/ml. This was used as a bacterial solution for inoculation. The medium was painted in each square about 2 cm with nichromic line loop. The medium was cultured under microair for three days at 37° C. […] The each result is shown at Table 4.

[5] = tested on: Helicobacter pylori No. 4; assay: as above; details: Strain 7: Helicobacter pylori No. 4
Protocol: as §3

[6] = tested on: Helicobacter pylori No. 3; assay: as above; details: Strain 6: Helicobacter pylori No. 3
Protocol: as §3

[7] = tested on: Helicobacter pylori No. 1; assay: as above; details: Strain 4: Helicobacter pylori No. 1
Protocol: as §3

[8] = tested on: Bacillus subtilis ATCC 6633; assay: MIC, standard method of Japanese Chemotherapy Academy; details: standard method of Japanese Chemotherapy Academy
Protocol: as §1
And MIC of the compounds of Example 3, 36, 8, 14, 17, 21, 41 and 45 were measured.

Work on CC(C)OC(=O)c1ccc(-c2ccc(OC(=O)[C@H]3CC[C@H](CNC(=N)N)CC3)cc2)cc1.Cl [Example 20, trans-4-guanidinomethyl cyclohexane carboxylic acid [4-(4-isopropyloxycarbonyl)phenylphenylester].hydrochloride] yielded an MIC [1] greater than 25 µg/mL, an MIC [2] of 0.78 µg/mL and an MIC [3] of 0.78 µg/mL. The MIC [4] was 1.56 µg/mL, the MIC [5] was 0.78 µg/mL and the MIC [6] was 0.39 µg/mL. The MIC [7] was 0.39 µg/mL.

Cc1ccc(COC(=O)c2ccc(-c3ccc(OC(=O)[C@H]4CC[C@H](CNC(=N)N)CC4)c(Br)c3)cc2)cc1.Cl [Example 24, trans-4-guanidinomethyl cyclohexane carboxylic acid[2-bromo-4-[4-(4-methylbenzyloxycarbonyl)phenyl]phenylester].hydrochloride] showed an MIC [1] greater than 25 µg/mL, an MIC [2] of 0.39 µg/mL and an MIC [3] of 0.78 µg/mL. For the same compound, the MIC [4] was 0.39 µg/mL, the MIC [5] was 0.39 µg/mL and the MIC [6] was 0.20 µg/mL. For the same compound, the MIC against bacillus subcillus ATCC 6633 [8] was greater than 25 µg/mL.

Work on Cl.N=C(N)NC[C@H]1CC[C@H](C(=O)Oc2ccc(-c3ccc(C(=O)OCCCc4ccccc4)cc3)cc2)CC1 [Example 39, trans-4-guanidinomethyl cyclohexane carboxylic acid[4-[4-(3-phenylpropyloxycarbonyl)phenyl]phenylester].hydrochloride] yielded an MIC [1] greater than 25 µg/mL, an MIC [2] of 0.39 µg/mL and an MIC [3] of 0.78 µg/mL. For the same compound, the MIC [4] was 0.78 µg/mL, the MIC [5] was 0.39 µg/mL and the MIC [6] was 0.20 µg/mL. It also gave an MIC [7] of 0.39 µg/mL.

Work on CCOC(=O)c1ccc(-c2ccc(OC(=O)[C@H]3CC[C@H](CNC(=N)N)CC3)cc2)cc1.Cl [Example 2, trans-4-guanidinomethyl cyclohexane carboxylic acid [4-(4-ethoxycarbonylphenyl)phenylester].hydrochloride] yielded an MIC [1] greater than 25 µg/mL, an MIC [2] of 1.56 µg/mL and an MIC [3] of 0.78 µg/mL. It also gave an MIC [4] of 1.56 µg/mL, an MIC [5] of 0.78 µg/mL and an MIC [6] of 0.39 µg/mL. The MIC [7] was 0.39 µg/mL.

Work on Cl.N=C(N)NC[C@H]1CC[C@H](C(=O)Oc2ccc(-c3ccc(C(=O)OCCCOc4ccc(F)cc4)cc3)cc2)CC1 [Example 40, trans-4-guanidinomethyl cyclohexane carboxylic acid[4-[4-[3-(4-fluorophenyloxy)propyloxycarbonyl]phenyl]phenylester].hydrochloride] yielded an MIC [1] greater than 25 µg/mL, an MIC [2] of 0.20 µg/mL and an MIC [3] of 0.39 µg/mL. It also gave an MIC [4] of 0.78 µg/mL, an MIC [5] of 0.39 µg/mL and an MIC [6] of 0.10 µg/mL. The MIC [7] was 0.20 µg/mL.

In the case of CCCC[C@H]1CC[C@H](COC(=O)c2ccc(-c3ccc(OC(=O)[C@H]4CC[C@H](CNC(=N)N)CC4)cc3)cc2)CC1.Cl [Example 42, trans-4-guanidinomethyl cyclohexane carboxylic acid[4-[4-(trans-4-n-butylcyclohexylmethloxycarbonyl)phenyl]phenylester].hydrochloride], the MIC [1] was greater than 25 µg/mL, the MIC [2] was 0.39 µg/mL and the MIC [3] was 1.56 µg/mL. It also gave an MIC [4] of 1.56 µg/mL, an MIC [5] of 0.39 µg/mL and an MIC [6] of 0.20 µg/mL. The MIC [7] was 0.39 µg/mL.

With “4-[4-(trans-4-guanidinomethyl cyclohexylcarbonyloxy)phenyl]benzoate.methansulfonate [Example 28]” the MIC against Escherichia coli. NHJC-2 ([1]; standard method of Japanese Chemotherapy Academy) was greater than 25 µg/mL and the MIC against bacillus subcillus ATCC 6633 [8] was greater than 25 µg/mL.

For Cl.N=C(N)NC[C@H]1CC[C@H](C(=O)Oc2ccc(-c3ccccc3)cc2)CC1 [Compound 1, trans-4-guanidinomethyl cyclohexane carboxylic acid (4-phenylphenylester)hydrochloride, reference compound], the MIC [1] was greater than 25 µg/mL, the MIC [2] was 3.13 µg/mL and the MIC [3] was 0.78 µg/mL. The MIC [4] was 1.56 µg/mL, the MIC [5] was 0.78 µg/mL and the MIC [6] was 0.39 µg/mL. The MIC [7] was 0.39 µg/mL.
